Data reported in publication PMC5412352 (International Journal of Molecular Sciences, 2017).
“Also recorded” adds a separate entry of the source.

Columns and labels:
muscarinic M2Rs = molecular target: T1, muscarinic M2Rs (Homo sapiens, UniProt P08172); experiment: Commercial screening by Eurofins Panlabs; assay type: binding
T1 construct: Eurofins Panlabs (Taiwan), contract screening
T1 sequence (P08172 1-466): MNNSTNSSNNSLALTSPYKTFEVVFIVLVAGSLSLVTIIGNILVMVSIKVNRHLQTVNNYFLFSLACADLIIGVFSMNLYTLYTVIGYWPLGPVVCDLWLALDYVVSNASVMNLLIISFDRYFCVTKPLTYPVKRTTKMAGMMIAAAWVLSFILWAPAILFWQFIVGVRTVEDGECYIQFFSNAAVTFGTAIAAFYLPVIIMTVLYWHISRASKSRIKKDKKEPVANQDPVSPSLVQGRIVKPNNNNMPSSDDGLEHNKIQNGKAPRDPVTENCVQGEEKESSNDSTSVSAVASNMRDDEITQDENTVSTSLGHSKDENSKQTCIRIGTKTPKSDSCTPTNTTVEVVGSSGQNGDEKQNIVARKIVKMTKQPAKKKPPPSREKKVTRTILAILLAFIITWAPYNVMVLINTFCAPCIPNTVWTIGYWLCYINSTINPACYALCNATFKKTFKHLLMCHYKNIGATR

chemokine CXCR3Rs = molecular target: T2, chemokine CXCR3Rs (Homo sapiens, UniProt P49682); experiment: Commercial screening by Eurofins Panlabs; assay type: binding
T2 construct: Eurofins Panlabs (Taiwan), contract screening
T2 sequence (P49682 1-368): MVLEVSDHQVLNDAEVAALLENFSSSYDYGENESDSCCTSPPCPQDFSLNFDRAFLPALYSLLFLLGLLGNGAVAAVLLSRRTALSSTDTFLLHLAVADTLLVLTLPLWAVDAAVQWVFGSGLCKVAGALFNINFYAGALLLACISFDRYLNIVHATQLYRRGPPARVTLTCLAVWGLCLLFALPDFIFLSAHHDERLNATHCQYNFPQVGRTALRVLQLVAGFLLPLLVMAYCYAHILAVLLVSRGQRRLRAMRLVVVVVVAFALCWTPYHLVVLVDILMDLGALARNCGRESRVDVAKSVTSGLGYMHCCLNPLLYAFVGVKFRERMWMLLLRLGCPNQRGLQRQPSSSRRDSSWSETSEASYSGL

[1] = HPLC-based chromatographic hydrophobicity index on immobilized artificial membranes (CHI IAM); assay type: physicochemical; conditions: IAM PC DD2 column, acetonitrile / 50 mM ammonium acetate gradient
Description: Physicochemical properties of a drug such as lipophilicity and non-specific binding to membranes and plasma proteins are crucial parameters of a potential radiotracer, in particular if it is supposed to pass the blood brain barrier (BBB). The lipophilicity (logD7.4) was estimated using the commercially available ACD/Labs-12.5 software and the non-specific binding was estimated by the high-performance liquid chromatography (HPLC)-based hydrophobicity index at immobilized artificial membranes (CHI IAM) for seven fluorine substituted candidate molecules and (S)-13 without fluorine (Table 3).
The chromatographic hydrophobicity index on immobilized artificial membranes (CHI IAM) was experimentally determined by a HPLC method described by Valko and co-workers using a IAM PC DD2 column (100 × 4.6 mm, […], Regis Technologies, IL, USA), a gradient of acetonitrile, and 50 mM ammonium acetate as eluent and acetanilide, acetophenone, 1,4-dinitrobenzene, anisole propiophenone, valerophenone, and octanophenone as references.

serotonin 5-HT2BRs = molecular target: T3, serotonin 5-HT2BRs (Homo sapiens, UniProt P41595); experiment: Commercial screening by Eurofins Panlabs; assay type: binding
T3 construct: Eurofins Panlabs (Taiwan), contract screening
T3 sequence (P41595 whole entry): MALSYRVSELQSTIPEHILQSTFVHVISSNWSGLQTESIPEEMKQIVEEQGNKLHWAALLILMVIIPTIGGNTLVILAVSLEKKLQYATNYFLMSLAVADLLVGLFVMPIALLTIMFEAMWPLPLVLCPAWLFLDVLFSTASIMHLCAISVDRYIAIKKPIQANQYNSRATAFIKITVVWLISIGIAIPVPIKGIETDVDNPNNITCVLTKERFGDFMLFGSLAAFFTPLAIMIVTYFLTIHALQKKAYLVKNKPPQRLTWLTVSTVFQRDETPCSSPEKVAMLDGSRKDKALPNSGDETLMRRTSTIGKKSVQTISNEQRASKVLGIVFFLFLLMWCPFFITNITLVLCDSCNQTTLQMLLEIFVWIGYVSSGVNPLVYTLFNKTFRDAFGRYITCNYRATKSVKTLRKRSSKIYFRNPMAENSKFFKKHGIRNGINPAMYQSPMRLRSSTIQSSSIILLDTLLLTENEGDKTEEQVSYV

GhrR = molecular target: GhrR; design: method as in PMID 22342626; conditions: previously published value; cited from earlier work
adrenergic α1BRs = experiment: Commercial screening by Eurofins Panlabs; assay type: binding
muscarinic M1Rs = molecular target: T4, muscarinic M1Rs (Homo sapiens, UniProt P11229); experiment: Commercial screening by Eurofins Panlabs; assay type: binding
T4 construct: Eurofins Panlabs (Taiwan), contract screening
T4 sequence (P11229 1-460): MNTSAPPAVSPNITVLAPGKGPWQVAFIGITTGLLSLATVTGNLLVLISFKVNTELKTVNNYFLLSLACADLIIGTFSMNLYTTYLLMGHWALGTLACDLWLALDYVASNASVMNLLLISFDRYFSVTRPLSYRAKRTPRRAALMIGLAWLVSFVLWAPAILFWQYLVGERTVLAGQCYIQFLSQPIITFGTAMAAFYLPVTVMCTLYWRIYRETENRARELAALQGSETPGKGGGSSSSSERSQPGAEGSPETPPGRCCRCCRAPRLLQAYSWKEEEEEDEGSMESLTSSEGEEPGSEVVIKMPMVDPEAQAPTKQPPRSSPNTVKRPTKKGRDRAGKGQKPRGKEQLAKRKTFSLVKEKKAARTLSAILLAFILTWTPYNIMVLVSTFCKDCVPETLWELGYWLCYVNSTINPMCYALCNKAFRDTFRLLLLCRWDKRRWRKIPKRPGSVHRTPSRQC

[2] = molecular target: hGhrR (COS7 cells stably expressing hGhrR-eYFP) (Homo sapiens, UniProt Q92847); experiment: cell-based
Sequence of hGhrR (COS7 cells stably expressing hGhrR-eYFP) (Q92847 whole entry): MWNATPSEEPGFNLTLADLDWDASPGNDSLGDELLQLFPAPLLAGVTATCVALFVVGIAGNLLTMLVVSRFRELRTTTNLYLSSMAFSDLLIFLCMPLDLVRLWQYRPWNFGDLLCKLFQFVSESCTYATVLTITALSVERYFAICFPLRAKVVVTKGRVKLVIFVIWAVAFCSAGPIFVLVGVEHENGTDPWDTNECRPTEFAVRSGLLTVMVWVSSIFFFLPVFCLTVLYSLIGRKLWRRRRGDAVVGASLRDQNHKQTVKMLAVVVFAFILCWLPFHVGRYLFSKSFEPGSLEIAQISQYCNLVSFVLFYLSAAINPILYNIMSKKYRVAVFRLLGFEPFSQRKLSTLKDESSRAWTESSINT
Description: For that purpose, the inositol phosphate accumulation assay was used [43, 44].
Briefly, 60,000 to 80,000 cells/well of COS7 cells, stably expressing the fusion protein hGhrR-eYFP, were seeded in 48-well plates in Dulbecco’s modified Eagle’s medium (DMEM) with 10% fetal calf serum (FCS) and 0.4 mg/mL hygromycin B. The next day, the cells were labeled with [2-^3H]-myo-inositol (2 µCi/mL, PerkinElmer). […] Cell debris was removed and the supernatant purified on an anion-exchange resin (BioRad, Hercules, CA, USA). The obtained data were analyzed with GraphPad Prism 5.0 (GraphPad Software, San Diego, CA, USA). […] EC50/IC50 values were calculated from at least three independent experiments. Emax is defined as the difference between maximal and minimal effect in presence of the compound.

adrenergic α1ARs = experiment: Commercial screening by Eurofins Panlabs; assay type: binding

CHI IAM [1]: 43.0
Emax ([2]; COS-7, mean ± SEM, refers to ghrelin Emax as 100%, 0% = constitutive receptor activity): ~60%
EC50 ([2]; EC50, 2 h stimulation in absence of ghrelin, COS7-hGhrR): 0.7 nM
EC50 ([2]; pEC50, mean ± SEM, 2 h stimulation in absence of ghrelin): 0.676 nM
SMILES: Cc1nc2ccc(Oc3ccc(Br)cc3F)nc2c(=O)n1C[C@H]1CCCN(C(C)C)C1 [(S)-9, (S)-6-(4-Bromo-2-fluorophenoxy)-3-((1-isopropylpiperidin-3-yl)methyl)-2-methylpyrido[3,2-d]pyrimidin-4(3H)-one]
significant response (≥50% inhibition or stimulation) (muscarinic M2Rs): did not show significant responses; also recorded: did not show significant binding
significant response (≥50% inhibition or stimulation) (chemokine CXCR3Rs): did not show significant responses; also recorded: did not show significant binding
significant response (≥50% inhibition or stimulation) (serotonin 5-HT2BRs): did not show significant responses; also recorded: did not show significant binding
Ki (GhrR): 0.01 nM
significant response (≥50% inhibition or stimulation) (adrenergic α1BRs): did not show significant responses; also recorded: did not show significant binding
significant response (≥50% inhibition or stimulation) (muscarinic M1Rs): did not show significant responses; also recorded: did not show significant binding
significant response (≥50% inhibition or stimulation) (adrenergic α1ARs): did not show significant responses; also recorded: did not show significant binding
